The values that follow are results of earlier work, collected in patent US20110105624A1, “ENDIPALENE FORMULATIONS IN THE TREATMENT OF PSORIASIS” (priority 2008, published 2011).

The structures appear in SMILES notation.

The data set relates to volunteers with psoriasis.

For the compound `COc1c(OC)c(OC(C)=O)c2cc(Cl)ccc2c1OC(C)=O` [Lonapalene, 6-chloro-2,3-dimethoxynaphtalendiacetate], the “clinical improvement in lesions” value (2% ointment, topical, compared with vehicle-treated sites) was “statistically significant clinical improvement”. Also, the “side effects related to topical application” value (topical application) is reported as “serious side effects”.
